In article PMC11855827, “High-Throughput Screening of Five Compound Libraries for Anthelmintic Activity and Toxicity Leads to the Discovery of Two Flavonoid Compounds” (International Journal of Molecular Sciences, 2025):
“And” between values parts separate entries of the source, which are not always exact repeats. Equal values may be shown once. Read-outs that look alike come from different tables or passages of the source.

Test system: C. elegans
[1] = Table S2, C. elegans SS assay, 110 μM, 0 h, averages of 4 data points
[2] = Table S2, C. elegans SS assay, 110 μM, 24 h, averages of 4 data points

Row | Compound | Percentage of motility inhibition 0 h [1] | Percentage of motility inhibition 24 h [2] | Percentage of motility inhibition 0 h (110 µM) | Percentage of motility inhibition 24 h (110 µM)
1 | C[C@@]1(O)[C@H](O)[C@@H](CO)O[C@H]1n1ccc(N)nc1=O [NM107] | 37% | 27% |  | 
2 | CCOc1ccc2ccccc2c1C(=O)N[C@@H]1C(=O)N2[C@@H]1SC(C)(C)[C@@H]2C(=O)[O-].O.[Na+] [Nafcillin (sodium monohydrate)] | 12% | 2% |  | 
3 | CCn1cc(C(=O)[O-])c(=O)c2ccc(C)nc21.[Na+] [Nalidixic acid (sodium salt)] | 0% | 0% |  | 
4 | CC(C)(C)NCc1cc(Nc2ccnc3cc(Cl)ccc23)c2c(c1O)CCCC2.O=P(O)(O)O.O=P(O)(O)O [Naphthoquine (phosphate)] | 28% | 8% |  | 
5 | O=C1N[C@@H]2C(=C[C@H](O)[C@@H](O)[C@H]2O)c2cc3c(c(O)c21)OCO3 [Narciclasine] | 32% | 14% |  | 
6 | CC(=O)Oc1ccc([C@@H]2CC(=O)c3c(OC(C)=O)cc(OC(C)=O)cc3O2)cc1 [Naringenin triacetate] | 0% | 14% |  | 
7 | C[C@@H]1O[C@@H](O[C@H]2[C@H](Oc3cc(O)c(C(=O)CCc4ccc(O)cc4)c(O)c3)O[C@H](CO)[C@@H](O)[C@@H]2O)[C@H](O)[C@H](O)[C@H]1O [Naringin Dihy drochalcone] | 14% | 1% |  | 
8 | CS(=O)(=O)O.Cc1c(O)cccc1C(=O)N[C@@H](CSc1ccccc1)[C@H](O)CN1C[C@H]2CCCC[C@H]2C[C@H]1C(=O)NC(C)(C)C [Nelfinavir (Mesylate)] | 47% | 5% |  | 
9 | N#C[C@@H](O[C@@H]1O[C@H](CO[C@@H]2O[C@H](CO)[C@@H](O)[C@H](O)[C@H]2O)[C@@H](O)[C@H](O)[C@H]1O)c1ccccc1 [Neoamygdalin] | 0% | 0% |  | 
10 | COc1ccc(-c2cc(=O)c3c(O)cc(O[C@@H]4O[C@H](CO)[C@@H](O)[C@H](O)[C@H]4O[C@@H]4O[C@@H](C)[C@H](O)[C@@H](O)[C@H]4O)cc3o2)cc1O [Neodiosmin] | 14% | 6% |  | 
11 | C[C@@H]1O[C@@H](O[C@H]2[C@H](Oc3cc(O)c4c(c3)O[C@H](c3ccc(O)c(O)c3)CC4=O)O[C@H](CO)[C@@H](O)[C@@H]2O)[C@H](O)[C@H](O)[C@H]1O [Neoeriocitrin] | 6% | 13% |  | 
12 | COc1ccc([C@@H]2CC(=O)c3c(O)cc(O[C@@H]4O[C@H](CO)[C@@H](O)[C@H](O)[C@H]4O[C@@H]4O[C@@H](C)[C@H](O)[C@@H](O)[C@H]4O)cc3O2)cc1O [Neohesperidin] | 14% | 0% |  | 
13 | C[C@@H]1O[C@@H](O[C@H]2C(=O)c3c(O)cc(O)cc3O[C@H]2c2ccc(O)c(O)c2)[C@H](O)[C@H](O)[C@H]1O [Neoisoastilbin] | 0% | 0% |  | 
14 | O=C(/C=C/c1ccc(O)cc1)c1ccc(O[C@@H]2O[C@H](CO)[C@@H](O)[C@H](O)[C@H]2O)cc1O [Neoisoliquiritin] | 17% | 11% |  | 
15 | O=C1C[C@@H](c2ccc(O)cc2)Oc2cc(O[C@@H]3O[C@H](CO)[C@@H](O)[C@H](O)[C@H]3O)ccc21 [Neoliquiritin] | 0% | 20% |  | 
16 | O=c1c2cc(O[C@@H]3O[C@H](CO)[C@@H](O)[C@H](O)[C@H]3O)c(O)cc2oc2cc(O)c([C@@H]3O[C@H](CO)[C@@H](O)[C@H](O)[C@H]3O)c(O)c12 [Neomangiferin] | 7% | 17% |  | 
17 | NC[C@@H]1O[C@H](O[C@H]2[C@@H](O)[C@H](O[C@@H]3[C@@H](O)[C@H](N)C[C@H](N)[C@H]3O[C@H]3O[C@H](CN)[C@@H](O)[C@H](O)[C@H]3N)O[C@@H]2CO)[C@H](N)[C@@H](O)[C@@H]1O.O=S(=O)(O)O [Neomycin (sulfate)] | 21% | 3% |  | 
18 | C=CC(=C)CCCC(C)CCCC(C)CCCC(C)C (stereo not shown) [Neophytadiene] | 3% | 6% |  | 
19 | COc1c(O)cc2oc(-c3ccc(O)c(O)c3)cc(=O)c2c1O [Nepetin] | 4% | 17% |  | 
20 | CCN[C@@H]1C[C@H](N)[C@@H](O[C@H]2OC(CN)=CC[C@H]2N)[C@H](O)[C@H]1O[C@H]1OC[C@](C)(O)[C@H](NC)[C@H]1O.CCN[C@@H]1C[C@H](N)[C@@H](O[C@H]2OC(CN)=CC[C@H]2N)[C@H](O)[C@H]1O[C@H]1OC[C@](C)(O)[C@H](NC)[C@H]1O.O=S(=O)(O)O.O=S(=O)(O)O.O=S(=O)(O)O.O=S(=O)(O)O.O=S(=O)(O)O [Netilmicin (sulfate)] | 0% | 1% |  | 

Row | Compound | Percentage of motility inhibition 0 h [1] | Percentage of motility inhibition 24 h [2] | Percentage of motility inhibition 0 h (110 µM) | Percentage of motility inhibition 24 h (110 µM)
21 | C[C@@H]1O[C@@H](OC[C@H]2O[C@@H](Oc3c(-c4ccc(O)cc4)oc4cc(O)cc(O)c4c3=O)[C@H](O)[C@@H](O)[C@@H]2O)[C@H](O)[C@H](O)[C@H]1O [Nicotiflorin] | 4% | 40% |  | 
22 | NC(=O)c1ccc[n+]([O-])c1 [Nicotinamide N‐oxide] |  |  | 14% | 32%
23 | NC(=O)c1ccc[n+]([C@@H]2O[C@H](CO)[C@@H](O)[C@H]2O)c1.[Cl-] [Nicotinamide riboside (chloride)] | 15% | 0% |  | 
24 | NC(=O)c1cccnc1 [Nicotinamide] |  | 0% and 10% |  | 
25 | O=C([O-])c1ccc[n+]([C@@H]2O[C@H](CO)[C@@H](O)[C@H]2O)c1 [Nicotinic acid riboside] | 5% | 0% |  | 
26 | C[C@@H]1CC[C@]2(C(=O)O[C@@H]3O[C@H](CO)[C@@H](O)[C@H](O)[C@H]3O)CC[C@]3(C)C(=CC[C@@H]4[C@@]5(C)C[C@@H](O)[C@H](O)[C@@](C)(CO)[C@@H]5CC[C@]43C)[C@@H]2[C@]1(C)O [Niga-ichigoside F1] | 0% | 1% |  | 
27 | COc1cc2c[n+](C)c3c4cc5c(cc4ccc3c2cc1OC)OCO5.[Cl-] [Nitidine (chloride)] | 0% | 7% |  | 
28 | NC(=O)c1cc([N+](=O)[O-])cc([N+](=O)[O-])c1 [Nitromide] | 25% | 12% |  | 
29 | CC(Cc1ccc(O)c(O)c1)C(C)Cc1ccc(O)c(O)c1 (stereo not shown) [Nordihydroguaiaretic acid] | 8% | 21% |  | 
30 | Cl.NCC(O)c1ccc(O)c(O)c1 (stereo not shown) [Norepinephrine (hydrochloride)] | 23% and 12% |  |  | 
31 | CC(C)(O)CCc1c(O)cc(O)c2c(=O)c(O)c(-c3ccc(O)cc3)oc12 [Noricaritin] | 42% | 5% |  | 
32 | COc1cc2c(cc1O)C[C@@H]1NCCc3cc(OC)c(O)c-2c31 [Norisoboldine] | 0% | 0% |  | 
33 | OC1C[C@H]2CC[C@@H](C1)N2 (stereo partly shown) [Nortropine] | 12% | 11% |  | 
34 | CC(C)=CCC[C@](C)(O[C@@H]1O[C@H](CO[C@@H]2O[C@H](CO)[C@@H](O)[C@H](O)[C@H]2O)[C@@H](O)[C@H](O)[C@H]1O)[C@H]1CC[C@]2(C)[C@@H]1[C@H](O)C[C@@H]1[C@@]3(C)CC[C@H](O[C@@H]4O[C@H](CO)[C@@H](O)[C@H](O)[C@H]4O[C@@H]4O[C@H](CO)[C@@H](O)[C@H](O)[C@H]4O[C@@H]4OC[C@@H](O)[C@H](O)[C@H]4O)C(C)(C)[C@@H]3CC[C@]12C [Notoginsenoside Fa] | 7% | 33% |  | 
35 | CC(C)=CCC[C@](C)(O[C@@H]1O[C@H](CO[C@@H]2OC[C@@H](O)[C@H](O)[C@H]2O)[C@@H](O)[C@H](O)[C@H]1O)[C@H]1CC[C@]2(C)[C@@H]1[C@H](O)C[C@@H]1[C@@]3(C)CC[C@H](O[C@@H]4O[C@H](CO)[C@@H](O)[C@H](O)[C@H]4O[C@@H]4O[C@H](CO)[C@@H](O)[C@H](O)[C@H]4O[C@@H]4OC[C@@H](O)[C@H](O)[C@H]4O)C(C)(C)[C@@H]3CC[C@]12C [Notoginsenoside Fc] | 0% | 0% |  | 
36 | CC(C)=CCC[C@@](C)(O)[C@H]1CC[C@]2(C)[C@@H]1[C@H](O)C[C@@H]1[C@@]3(C)CC[C@H](O[C@@H]4O[C@H](CO)[C@@H](O)[C@H](O)[C@H]4O[C@@H]4O[C@H](CO)[C@@H](O)[C@H](O)[C@H]4O[C@@H]4OC[C@@H](O)[C@H](O)[C@H]4O)C(C)(C)[C@@H]3CC[C@]12C [Notoginsenoside Ft1] | 14% | 3% |  | 
37 | CC(C)=CCC[C@](C)(O[C@@H]1O[C@H](CO)[C@@H](O)[C@H](O)[C@H]1O)[C@H]1CC[C@]2(C)[C@@H]1[C@H](O)C[C@@H]1[C@@]3(C)CC[C@H](O)C(C)(C)[C@@H]3[C@@H](O[C@@H]3O[C@H](CO)[C@@H](O)[C@H](O)[C@H]3O[C@@H]3OC[C@@H](O)[C@H](O)[C@H]3O)C[C@]12C [Notoginsenoside R1] | 5% | 26% |  | 
38 | CC(C)=CCC[C@](C)(O)[C@H]1CC[C@]2(C)[C@@H]1[C@H](O)C[C@@H]1[C@@]3(C)CC[C@H](O)C(C)(C)[C@@H]3[C@@H](O[C@@H]3O[C@H](CO)[C@@H](O)[C@H](O)[C@H]3O[C@@H]3OC[C@@H](O)[C@H](O)[C@H]3O)C[C@]12C [Notoginsenoside R2] | 19% | 9% |  | 
39 | CO[C@@H]1[C@@H](OC(N)=O)[C@@H](O)[C@H](Oc2ccc3c([O-])c(NC(=O)c4ccc(O)c(CC=C(C)C)c4)c(=O)oc3c2C)OC1(C)C.[Na+] [Novobiocin (Sodium)] | 25% | 1% |  | 
